Assay results published in ChEMBL document CHEMBL5537133, “Rational design and optimization of novel 4-methyl quinazoline derivatives as PI3K/HDAC dual inhibitors with benzamide as zinc binding moiety for the treatment of acute myeloid leukemia” (Eur J Med Chem, 2024).

Tests used:
MV4-11 [1] = assay: Antiproliferative activity against human MV4-11 cells assessed as reduction in cell viability incubated for 72 hrs by CCK-8 assay; type: functional, cell-based; details: MV4-11, 72 h
[2] = target: Phosphatidylinositol 4,5-bisphosphate 3-kinase catalytic subunit beta isoform (Homo sapiens, UniProt P42338); assay: Inhibition of PI3Kbeta (unknown origin) using PIP2 as substrate incubated for 1 hr in presence of ATP by ADP-Glo assay
[3] = target: Phosphatidylinositol 4,5-bisphosphate 3-kinase catalytic subunit gamma isoform (Homo sapiens, UniProt P48736); assay: Inhibition of PI3Kgamma (unknown origin) using PIP2 as substrate incubated for 1 hr in presence of ATP by ADP-Glo assay
Chain of Phosphatidylinositol 4,5-bisphosphate 3-kinase catalytic subunit gamma isoform (P48736 whole entry, canonical isoform): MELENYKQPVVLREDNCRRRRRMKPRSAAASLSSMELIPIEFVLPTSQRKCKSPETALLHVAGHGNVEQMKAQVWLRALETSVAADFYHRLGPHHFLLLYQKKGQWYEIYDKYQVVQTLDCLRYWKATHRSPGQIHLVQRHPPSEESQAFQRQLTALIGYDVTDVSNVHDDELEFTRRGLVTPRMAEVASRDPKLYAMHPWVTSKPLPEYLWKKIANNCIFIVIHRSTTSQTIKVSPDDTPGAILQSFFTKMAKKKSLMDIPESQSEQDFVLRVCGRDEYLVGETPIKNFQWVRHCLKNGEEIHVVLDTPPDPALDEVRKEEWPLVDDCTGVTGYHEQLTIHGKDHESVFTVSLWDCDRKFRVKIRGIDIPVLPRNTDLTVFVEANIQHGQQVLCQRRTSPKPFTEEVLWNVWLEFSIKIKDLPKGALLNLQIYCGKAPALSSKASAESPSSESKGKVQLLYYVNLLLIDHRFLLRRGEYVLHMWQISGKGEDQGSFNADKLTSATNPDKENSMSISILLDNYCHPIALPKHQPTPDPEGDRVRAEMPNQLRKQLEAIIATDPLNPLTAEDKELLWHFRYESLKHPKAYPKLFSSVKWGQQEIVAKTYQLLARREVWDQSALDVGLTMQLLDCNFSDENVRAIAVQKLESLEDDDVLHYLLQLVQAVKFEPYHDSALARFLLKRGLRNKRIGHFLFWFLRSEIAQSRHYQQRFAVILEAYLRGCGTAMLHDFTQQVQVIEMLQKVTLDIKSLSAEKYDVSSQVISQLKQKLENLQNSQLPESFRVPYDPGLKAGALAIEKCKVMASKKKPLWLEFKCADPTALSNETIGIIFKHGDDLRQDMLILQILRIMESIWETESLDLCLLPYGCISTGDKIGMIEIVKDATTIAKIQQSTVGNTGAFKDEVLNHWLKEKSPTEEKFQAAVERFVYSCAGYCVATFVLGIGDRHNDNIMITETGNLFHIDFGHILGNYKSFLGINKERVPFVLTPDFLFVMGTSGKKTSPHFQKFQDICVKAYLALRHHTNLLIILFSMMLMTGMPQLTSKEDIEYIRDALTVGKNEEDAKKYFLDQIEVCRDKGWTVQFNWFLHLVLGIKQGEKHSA

[4] = target: Phosphatidylinositol 4,5-bisphosphate 3-kinase catalytic subunit delta isoform (Homo sapiens, UniProt O00329); assay: Inhibition of PI3Kdelta (unknown origin) using PIP2 as substrate incubated for 1 hr in presence of ATP by ADP-Glo assay
Chain of Phosphatidylinositol 4,5-bisphosphate 3-kinase catalytic subunit delta isoform (O00329 whole entry, canonical isoform): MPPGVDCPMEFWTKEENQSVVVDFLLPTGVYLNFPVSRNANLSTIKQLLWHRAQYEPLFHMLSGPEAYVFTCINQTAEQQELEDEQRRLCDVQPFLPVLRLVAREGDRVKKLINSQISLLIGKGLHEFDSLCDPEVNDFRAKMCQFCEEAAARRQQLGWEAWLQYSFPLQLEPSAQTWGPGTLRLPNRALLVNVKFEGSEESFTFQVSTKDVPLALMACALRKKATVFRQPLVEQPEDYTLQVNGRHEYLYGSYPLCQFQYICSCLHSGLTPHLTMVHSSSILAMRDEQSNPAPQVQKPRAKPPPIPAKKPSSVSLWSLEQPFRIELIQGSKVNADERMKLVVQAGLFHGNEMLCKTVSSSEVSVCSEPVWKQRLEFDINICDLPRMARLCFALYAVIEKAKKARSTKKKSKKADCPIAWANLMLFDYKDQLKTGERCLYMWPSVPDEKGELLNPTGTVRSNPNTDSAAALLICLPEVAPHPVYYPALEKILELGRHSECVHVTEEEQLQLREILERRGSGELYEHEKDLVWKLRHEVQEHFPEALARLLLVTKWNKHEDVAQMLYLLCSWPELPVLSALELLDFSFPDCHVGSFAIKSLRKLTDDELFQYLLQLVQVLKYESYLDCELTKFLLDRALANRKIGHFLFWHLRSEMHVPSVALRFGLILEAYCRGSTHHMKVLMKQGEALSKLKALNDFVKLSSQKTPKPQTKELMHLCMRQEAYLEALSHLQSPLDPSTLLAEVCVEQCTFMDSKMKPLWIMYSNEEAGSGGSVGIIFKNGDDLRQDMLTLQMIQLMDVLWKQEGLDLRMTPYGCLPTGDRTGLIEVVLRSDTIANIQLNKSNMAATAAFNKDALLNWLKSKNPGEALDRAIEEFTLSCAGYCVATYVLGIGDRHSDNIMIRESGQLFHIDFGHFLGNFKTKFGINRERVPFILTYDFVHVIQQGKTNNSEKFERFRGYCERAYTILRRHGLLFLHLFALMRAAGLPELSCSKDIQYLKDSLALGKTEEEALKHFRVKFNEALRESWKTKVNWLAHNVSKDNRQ

[5] = target: Serine/threonine-protein kinase mTOR (Homo sapiens, UniProt P42345); assay: Inhibition of N-terminal FLAG-tagged recombinant human mTOR (1362 to end residues) using ULight-4E-BP1 (Thr37/46) peptide as substrate incubated for 30 mins in presence of ATP by LANCE ultra assay
Histone deacetylase 2 = Histone deacetylase 2 (Homo sapiens, UniProt Q92769); assay: Inhibition of C-terminal His6-FLAG-tagged human recombinant HDAC2 (1 to 488 residues) expressed in Sf9 cells using Ac-peptide as substrate preincubated for 15 mins followed by substrate addition and measured after 1 hr by plate reader analysis
Histone deacetylase 3 = Histone deacetylase 3 (Homo sapiens, UniProt O15379); assay: Inhibition of HDAC3 (unknown origin)
Histone deacetylase 4 = Histone deacetylase 4 (Homo sapiens, UniProt P56524); assay: Inhibition of N-terminal GST-tagged and C-terminal His-tagged human HDAC4 (627 to 1084 end residues) expressed in baculovirus infected Sf9 cells using Ac-peptide as substrate incubated for 1 hr by plate reader analysis
Chain of Histone deacetylase 4 (P56524 whole entry): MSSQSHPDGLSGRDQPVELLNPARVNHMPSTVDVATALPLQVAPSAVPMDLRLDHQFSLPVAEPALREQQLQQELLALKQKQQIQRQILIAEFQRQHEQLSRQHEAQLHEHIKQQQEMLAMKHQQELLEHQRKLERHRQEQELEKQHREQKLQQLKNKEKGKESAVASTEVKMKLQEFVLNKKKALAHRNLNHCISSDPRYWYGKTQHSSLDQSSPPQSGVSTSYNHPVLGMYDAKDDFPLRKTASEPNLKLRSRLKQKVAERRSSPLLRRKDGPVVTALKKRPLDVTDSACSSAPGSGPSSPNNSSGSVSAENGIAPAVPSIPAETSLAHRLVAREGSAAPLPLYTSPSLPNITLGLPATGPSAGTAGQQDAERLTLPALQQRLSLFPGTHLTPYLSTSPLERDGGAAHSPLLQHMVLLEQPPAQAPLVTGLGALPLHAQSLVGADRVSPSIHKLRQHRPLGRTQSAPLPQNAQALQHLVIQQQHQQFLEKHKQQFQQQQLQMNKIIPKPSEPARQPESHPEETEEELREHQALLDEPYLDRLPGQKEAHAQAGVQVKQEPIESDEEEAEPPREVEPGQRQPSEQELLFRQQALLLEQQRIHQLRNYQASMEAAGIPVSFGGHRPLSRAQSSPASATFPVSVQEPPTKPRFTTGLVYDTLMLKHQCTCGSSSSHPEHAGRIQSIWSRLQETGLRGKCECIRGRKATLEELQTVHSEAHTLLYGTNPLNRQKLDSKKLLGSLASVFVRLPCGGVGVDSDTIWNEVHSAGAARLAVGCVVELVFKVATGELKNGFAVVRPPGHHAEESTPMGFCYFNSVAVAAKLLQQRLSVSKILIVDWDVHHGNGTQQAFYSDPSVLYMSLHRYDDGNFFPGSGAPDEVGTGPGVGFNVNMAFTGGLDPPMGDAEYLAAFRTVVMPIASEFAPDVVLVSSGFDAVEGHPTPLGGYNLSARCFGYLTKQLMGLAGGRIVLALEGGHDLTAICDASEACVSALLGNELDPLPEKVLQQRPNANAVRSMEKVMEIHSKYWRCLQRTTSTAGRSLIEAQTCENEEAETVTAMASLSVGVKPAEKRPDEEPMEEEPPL

[6] = target: Protein deacetylase HDAC6 (Homo sapiens, UniProt Q9UBN7); assay: Inhibition of HDAC6 (unknown origin)
Chain of Protein deacetylase HDAC6 (Q9UBN7 whole entry): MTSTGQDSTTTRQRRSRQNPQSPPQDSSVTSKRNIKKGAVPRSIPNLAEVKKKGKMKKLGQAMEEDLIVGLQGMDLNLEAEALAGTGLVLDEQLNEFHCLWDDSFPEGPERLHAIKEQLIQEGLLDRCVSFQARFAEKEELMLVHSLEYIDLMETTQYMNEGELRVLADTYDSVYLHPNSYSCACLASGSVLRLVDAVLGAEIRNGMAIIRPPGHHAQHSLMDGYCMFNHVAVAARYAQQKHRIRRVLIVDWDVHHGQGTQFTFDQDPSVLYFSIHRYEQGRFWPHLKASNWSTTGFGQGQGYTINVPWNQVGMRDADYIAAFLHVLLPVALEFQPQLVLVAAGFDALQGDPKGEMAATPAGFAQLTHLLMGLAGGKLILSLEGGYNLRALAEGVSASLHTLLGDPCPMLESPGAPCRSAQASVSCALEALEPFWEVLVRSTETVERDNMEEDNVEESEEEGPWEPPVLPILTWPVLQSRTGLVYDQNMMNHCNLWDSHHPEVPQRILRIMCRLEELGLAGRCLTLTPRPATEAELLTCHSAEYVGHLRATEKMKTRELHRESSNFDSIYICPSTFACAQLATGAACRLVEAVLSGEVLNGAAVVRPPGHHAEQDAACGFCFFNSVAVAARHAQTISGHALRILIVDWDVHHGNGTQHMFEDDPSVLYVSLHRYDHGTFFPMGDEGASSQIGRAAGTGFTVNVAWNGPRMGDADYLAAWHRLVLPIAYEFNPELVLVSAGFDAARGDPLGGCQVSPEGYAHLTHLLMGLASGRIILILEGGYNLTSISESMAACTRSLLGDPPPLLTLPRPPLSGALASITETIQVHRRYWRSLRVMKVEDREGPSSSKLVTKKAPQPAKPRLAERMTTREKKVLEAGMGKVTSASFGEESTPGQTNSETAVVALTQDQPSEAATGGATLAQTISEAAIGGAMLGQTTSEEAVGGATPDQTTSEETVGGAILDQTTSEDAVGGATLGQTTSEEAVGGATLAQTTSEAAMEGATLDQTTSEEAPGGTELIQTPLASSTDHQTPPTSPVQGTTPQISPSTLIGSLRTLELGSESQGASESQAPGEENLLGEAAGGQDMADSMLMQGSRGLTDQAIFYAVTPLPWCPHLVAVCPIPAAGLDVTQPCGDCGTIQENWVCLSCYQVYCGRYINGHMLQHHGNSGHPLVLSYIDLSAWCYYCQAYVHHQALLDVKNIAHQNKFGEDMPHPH

Histone deacetylase 8 = Histone deacetylase 8 (Homo sapiens, UniProt Q9BY41); assay: Inhibition of C-terminal His-tagged human recombinant HDAC8 (1 to 377 end residues) expressed in Sf9 cells using Ac-peptide as substrate incubated for 1 hr by plate reader analysis
Histone deacetylase 11 = Histone deacetylase 11 (Homo sapiens, UniProt Q96DB2); assay: Inhibition of human HDAC11 (1 to 347 end residues) expressed in Sf9 cells using Ac-peptide as substrate incubated for 1 hr by plate reader analysis
NB-4 = assay: Antiproliferative activity against human NB4 cells assessed as reduction in cell viability incubated for 72 hrs by CCK-8 assay; type: functional, cell-based; details: NB-4, 72 h
HL-60 = assay: Antiproliferative activity against human HL-60 cells assessed as reduction in cell viability incubated for 72 hrs by CCK-8 assay; type: functional, cell-based; details: HL-60, 72 h
DOHH-2 = assay: Antiproliferative activity against human DOHH-2 cells assessed as reduction in cell viability incubated for 72 hrs by CCK-8 assay; type: functional, cell-based; details: DOHH-2, 72 h
Ramos = assay: Antiproliferative activity against human Ramos cells assessed as reduction in cell viability incubated for 72 hrs by CCK-8 assay
Raji = assay: Antiproliferative activity against human Raji cells assessed as reduction in cell viability incubated for 72 hrs by CCK-8 assay; type: functional, cell-based
[7] = Antiproliferative activity against human MINO cells assessed as reduction in cell viability incubated for 72 hrs by CCK-8 assay
L1210 = assay: Antiproliferative activity against mouse L1210 cells assessed as reduction in cell viability incubated for 72 hrs by CCK-8 assay; type: functional, cell-based; details: L1210, 72 h
[8] = tested on: Friend leukemia cell line; assay: Antiproliferative activity against mouse Friend leukemia cell line assessed as reduction in cell viability incubated for 72 hrs by CCK-8 assay; type: functional, cell-based
BaF3 = assay: Antiproliferative activity against mouse BaF3 cells assessed as reduction in cell viability incubated for 72 hrs by CCK-8 assay; type: functional, cell-based; details: BaF3, 72 h
EL4 = assay: Antiproliferative activity against mouse EL4 cells assessed as reduction in cell viability incubated for 72 hrs by CCK-8 assay; type: functional, cell-based; details: EL4, 72 h
[9] = Terminal half life in ICR mouse at 6 mg/kg, iv measured after 24 hrs by LC-MS/MS analysis; type: ADME, organism-based; details: in vivo
[10] = Terminal half life in ICR mouse at 60 mg/kg, po measured after 24 hrs by LC-MS/MS analysis; type: ADME, organism-based; details: in vivo, read-out: beta t1/2 (converted)
[11] = Tmax in ICR mouse at 60 mg/kg, po measured after 24 hrs by LC-MS/MS analysis; type: ADME, organism-based; details: in vivo
[12] = Cmax in ICR mouse at 60 mg/kg, po measured after 24 hrs by LC-MS/MS analysis; type: ADME, organism-based; details: in vivo
[13] = AUC(0 to t) in ICR mouse at 6 mg/kg, iv measured after 24 hrs by LC-MS/MS analysis; type: ADME, organism-based; details: in vivo
[14] = AUC(0 to t) in ICR mouse at 60 mg/kg, po measured after 24 hrs by LC-MS/MS analysis; type: ADME, organism-based; details: in vivo
[15] = AUC(0 to infinity) in ICR mouse at 6 mg/kg, iv measured after 24 hrs by LC-MS/MS analysis; type: ADME, organism-based; details: in vivo
[16] = AUC(0 to infinity) in ICR mouse at 60 mg/kg, po measured after 24 hrs by LC-MS/MS analysis; type: ADME, organism-based; details: in vivo
[17] = Apparent volume of distribution in ICR mouse at 6 mg/kg, iv measured after 24 hrs by LC-MS/MS analysis; type: ADME, organism-based; details: in vivo
[18] = Oral bioavailability in ICR mouse at 60 mg/kg measured after 24 hrs by LC-MS/MS analysis; type: ADME, organism-based; details: in vivo
MV4-11 [19] = assay: Antitumor activity against human MV4-11 cells xenografted in BALB/c nude mouse assessed as tumor growth inhibition at 10 mg/kg, ip administered once daily for 14 days relative to control; type: functional; details: MV4-11, 336 h, time 14 day, read-out: TGI
MV4-11 [20] = assay: Antitumor activity against human MV4-11 cells xenografted in BALB/c nude mouse assessed as tumor growth inhibition at 20 mg/kg, ip administered once daily for 14 days relative to control; type: functional; details: MV4-11, 336 h, time 14 day, read-out: TGI
MV4-11 [21] = assay: Antitumor activity against human MV4-11 cells xenografted in BALB/c nude mouse assessed as tumor growth inhibition at 60 mg/kg, po administered once daily for 14 days relative to control; type: functional; details: MV4-11, 336 h, time 14 day, read-out: TGI
[22] = Toxicity in BALB/c nude mouse xenografted with human MV4-11 cells assessed as change in body weight at 10 to 20 mg/kg, ip administered only daily for 14 days and measured twice a week; type: organism-based; details: in vivo, 336 h, dose 10-20 mg/kg, time 14 day
[23] = Toxicity in BALB/c nude mouse xenografted with human MV4-11 cells assessed as change in body weight at 60 mg/kg, po administered only daily for 14 days and measured twice a week; type: organism-based; details: in vivo, 336 h, time 14 day
[24] = target: Phosphatidylinositol 4,5-bisphosphate 3-kinase catalytic subunit alpha isoform (Homo sapiens, UniProt P42336)
Description: Inhibition of PI3Kalpha (unknown origin) using PIP2 as substrate incubated for 1 hr in presence of ATP by ADP-Glo assay

Histone deacetylase 1 = Histone deacetylase 1 (Homo sapiens, UniProt Q13547)
Chain of Histone deacetylase 1 (Q13547 whole entry): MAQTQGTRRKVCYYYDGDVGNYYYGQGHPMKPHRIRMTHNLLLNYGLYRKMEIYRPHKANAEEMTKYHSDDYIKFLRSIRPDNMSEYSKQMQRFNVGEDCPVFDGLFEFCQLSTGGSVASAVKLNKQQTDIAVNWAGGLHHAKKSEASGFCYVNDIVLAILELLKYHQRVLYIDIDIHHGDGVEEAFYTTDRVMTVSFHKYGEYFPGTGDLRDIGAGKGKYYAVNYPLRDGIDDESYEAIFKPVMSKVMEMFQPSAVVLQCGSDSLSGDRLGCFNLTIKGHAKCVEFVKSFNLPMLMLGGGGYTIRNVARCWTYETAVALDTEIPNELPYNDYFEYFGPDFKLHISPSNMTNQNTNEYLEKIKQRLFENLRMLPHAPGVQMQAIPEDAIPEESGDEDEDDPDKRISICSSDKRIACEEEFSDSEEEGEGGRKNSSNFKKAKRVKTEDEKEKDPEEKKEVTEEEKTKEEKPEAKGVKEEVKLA
Description: Inhibition of C-terminal 6His-FLAG-tagged human recombinant HDAC1 (1 to 482 residues) expressed in Sf9 cells using Ac-peptide as substrate preincubated for 15 mins followed by substrate addition and measured after 1 hr by plate reader analysis

[25] = Cmax in ICR mouse at 6 mg/kg, iv measured after 24 hrs by LC-MS/MS analysis; type: ADME, organism-based; details: in vivo
MV4-11 [26] = assay: Antiproliferative activity against human MV4-11 cells assessed as reduction in cell viability incubated for 72 hrs in presence of chidamide by CCK-8 assay; type: functional, cell-based; details: MV4-11, 72 h

Row | SMILES | IC50 (MV4-11 [1]) | IC50 [2] | IC50 [3] | IC50 [4] | IC50 [5] | IC50 (Histone deacetylase 2) | IC50 (Histone deacetylase 3) | IC50 (Histone deacetylase 4) | IC50 [6] | IC50 (Histone deacetylase 8) | IC50 (Histone deacetylase 11) | IC50 (NB-4) | IC50 (HL-60) | IC50 (DOHH-2) | IC50 (Ramos) | IC50 (Raji) | IC50 [7] | IC50 (L1210) | IC50 [8] | IC50 (BaF3) | further results
1 | COc1ncc(-c2cc(OCCCc3ccc(C(=O)Nc4ccccc4N)cc3)c3ncnc(C)c3c2)cc1NS(=O)(=O)c1ccc(F)cc1F | 50 nM | 0.62 nM | 15 nM | 1.8 nM | 9.5 nM | 84.5 nM | 6.6 nM | > 10000 nM | > 10000 nM | > 10000 nM | 3520 nM | 370 nM | 330 nM | 5300 nM | 5000 nM | 4600 nM | 6600 nM | 850 nM | 320 nM | 80 nM | IC50 (EL4): 840 nM; beta t1/2 [9]: 2.43 h; half-life [10]: 4.46 h; Tmax [11]: 0.25 h; Cmax [12]: 306 ng/mL; AUC(0-t) at 24 h [13]: 4880 ng·h/mL; AUC(0-t) at 24 h [14]: 1230 ng·h/mL; AUC [15]: 4930 ng·h/mL; AUC(0-inf) ([16]; ICR): 1710 ng·h/mL; Vz [17]: 4.27 L/kg; bioavailability [18]: 3.5%; inhibition in vivo at 10 mg/kg (MV4-11 [19]): 50%; inhibition in vivo at 20 mg/kg (MV4-11 [20]): 60.7%; inhibition in vivo at 60 mg/kg (MV4-11 [21]): 64.3%; Activity [22]: Non-Toxic; Activity [23]: Non-Toxic; IC50 [24]: 0.26 nM; IC50 (Histone deacetylase 1): 28 nM
2 | COc1ncc(-c2cc(OCCCCCCC(=O)Nc3ccccc3N)c3ncnc(C)c3c2)cc1NS(=O)(=O)c1ccc(F)cc1F | 4 nM | 0.66 nM | 1.8 nM | 1.9 nM | 3.4 nM | 181 nM | 899 nM | > 10000 nM | > 10000 nM | > 10000 nM | > 10000 nM | 40 nM | 210 nM | 5400 nM | 4400 nM | 6300 nM | 5400 nM | 140 nM | 350 nM | 130 nM | IC50 (EL4): 560 nM; beta t1/2 [9]: 2.3 h; half-life [10]: 1.38 h; Tmax [11]: 0.52 h; Cmax [25]: 8310 ng/mL; Cmax [12]: 3780 ng/mL; AUC(0-t) at 24 h [13]: 1580 ng·h/mL; AUC(0-t) at 24 h [14]: 5020 ng·h/mL; AUC [15]: 1605 ng·h/mL; AUC ([16]; po, 60 mg/kg, 24 h): 5042 ng·h/mL; inhibition in vivo at 10 mg/kg (MV4-11 [19]): 53.6%; inhibition in vivo at 20 mg/kg (MV4-11 [20]): 75%; inhibition in vivo at 60 mg/kg (MV4-11 [21]): 53.6%; Activity [22]: Non-Toxic; Activity [23]: Non-Toxic; IC50 [24]: 0.23 nM; IC50 (Histone deacetylase 1): 172 nM
3 | Cc1nc(NC(=O)N2CCC[C@H]2C(N)=O)sc1-c1ccnc(C(C)(C)C(F)(F)F)c1 [ALPELISIB] | 3500 nM | – | – | – | – | – | – | – | – | – | – | – | – | – | – | – | – | – | – | – | IC50 (MV4-11 [26]): 190 nM
